Test system: C2C12 myotubes
Assay: QRT-PCR of fatty acid transport, oxidation, mitochondrial biogenesis genes in C2C12 myotubes
Assay type: cell-based, mouse
Conditions: 10 nM, 12 or 24 hours
Description: A. ULMA induces expression of fatty acid transport, oxidation, mitochondrial biogenesis and energy dissipation related genes. C2C12 myotubes in 6 well plates were treated with 10 nM ULMA or vehicle (designated as 0 h; 0.1% vol/vol DMSO) for 12 h or 24 h. Following treatment, RNA was extracted and 1 μg RNA from each well was used to prepare cDNA and the cDNAs were then used for quantitative real-time PCR for indicated genes. Beta-actin was used as normalizing control. The relative mRNA level was quantitated using ddCT method and plotted as fold activity over vehicle treated control (0 h). Data is mean±SEM of 4-6 independent experiments performed in triplicates. *p<0.05, **p<0.01, ***p<0.001 compared to vehicle (DMSO) treated controls as determined by two tailed unpaired student's t-test.
Adiponectin enhances transcription of genes regulating fatty acid transport, fatty acid-oxidation and mitochondrial uncoupling proteins in skeletal muscle and myotubes (T. Kadowaki, T. Yamauchi, N. Kubota, K. Hara, K. Ueki, K. Tobe. J Clin Invest. 116(7): 1784-92. 2006; S. Dridi, M. Taouis. Journal of Nutritional Biochemistry 20 (2009): 831-839. 2009; M. Iwabu, T. Yamauchi, M. Okada-Iwabu, K. Sato, T. Nakagawa, M. Funata, M. Yamaguchi, S. Namiki, R. Nakayama, M. Tabata, H. Ogata, N. Kubota, I. Takamoto, Y. K. Hayashi, N. Yamauchi, H. Waki, M. Fukayama, I. Nishino, K. Tokuyama, K. Ueki, Y. Oike, S. Ishii, K. Hirose, T. Shimizu, K. Touhara, T. Kadowaki. Nature; 464(7293):1313-1319. 2010). The ability of ULMA to influence expression of these genes were checked in c2c12 myotubes. C2C12 myotubes in 6 well plates were treated with 10 nM ULMA or vehicle (DMSO) for 12 hours or 24 hours. Following treatment, the cells were washed with ice-cold PBS and RNA was extracted using Trizol (Ambion) according to manufacturer's instructions. The RNAs were quantitated using a spectrophotometer (nanophotometer; Implen GMBH) and 1 μg RNA was used to prepare cDNA using a cDNA synthesis kit (Applied Biosystems). cDNAs were then used for quantitative real-time PCR for indicated genes (FIG. 3A) using Veriquest SYBR green QRT-PCR mastermix (US Biologicals) and a Roche lightcycler 480 thermal cycler (Roche Diagnostics). Beta-actin was used as normalizing control. The relative mRNA level was quantitated using ddCT method. […] Adiponectin is also known to induce muscle and adipose glucose transporter 4 (GLUT4) expressions; and the ability of ULMA to induce the expression of GLUT4, PPAR and PGC-1α was investigated by western blotting. C2C12 myotubes in 10 cm dish were treated with vehicle (DMSO) or 10 nM ULMA in DMSO for 24 hours or 48 hours followed by western blotting as described [S. K. Dwivedi, N. Singh, R. Kumari, J. S. Mishra, S. Tripathi, P. Banerjee, P. Shah, V. Kukshal, A. M. Tyagi, A. N. Gaikwad, R. K. Chaturvedi, D. P. Mishra, A. K. Trivedi, S. Sanyal, N. Chattopadhyay, R. Ramachandran, M. I. Siddiqi, A. Bandyopadhyay, A. Arora, T. Lundasen, S. P. Anakk, D. D. Moore, S. Sanyal. Mol Endocrinol. 25(6): 922-932. 2011).

O=C1c2c(cc(O)c([C@@H]3O[C@H](CO)[C@@H](O)[C@H](O)[C@H]3O)c2O)O[C@@H](c2ccc(O)c(O)c2)[C@@H]1O [ULMA, (2S,3S)-(+)-3′,4′,5,7-tetrahydroxydihydroflavonol-6-C-β-D-glucopyranoside]
ACOX1 mRNA expression: enhanced expressions | CD36 mRNA expression: induced expression | CPT1B mRNA expression: enhanced expressions | FABP3 mRNA expression: induced expression | PGC-1α mRNA expression: induced expression | PPARα mRNA expression: induced expression | fatty acyl CoA synthetase mRNA expression: enhanced expressions | uncoupling protein 2 mRNA expression: induced expressions | uncoupling protein 3 mRNA expression: induced expressions

From patent US20160193240A1, “Ulmoside-A: Useful For Prevention Or Cure Of Metabolic Diseases” (COUNCIL OF SCIENTIFIC & INDUSTRIAL RESEARCH, priority 2013, published 2016)
